Test results taken from the CheMixHub viscosity set.
± gives the uncertainty stated by the source.

Test: xn = mol fraction of the nth substance listed
Details: 101 kPa

COCCOCCOCCOCCOC + O
viscosity [mPa·s]
Details	298 K	303.15 K	308.15 K	313.15 K	318.15 K	323.15 K
x1 = 0.00562	–	1.177 ± 0.08	1.049 ± 0.08	0.937 ± 0.08	0.839 ± 0.08	0.767 ± 0.08
x1 = 0.0075	1.323 ± 0.035	–	–	–	–	–
x1 = 0.0142	1.533 ± 0.04	–	–	–	–	–
x1 = 0.02904	–	2.119 ± 0.081	1.844 ± 0.081	1.618 ± 0.081	1.431 ± 0.08	1.275 ± 0.08
x1 = 0.0297	2.433 ± 0.062	–	–	–	–	–
x1 = 0.0419	3.198 ± 0.082	–	–	–	–	–
x1 = 0.04576	–	3.14 ± 0.082	2.677 ± 0.082	2.309 ± 0.081	1.992 ± 0.081	1.766 ± 0.081
x1 = 0.0593	4.289 ± 0.11	–	–	–	–	–
x1 = 0.07654	–	4.235 ± 0.084	3.566 ± 0.083	3.043 ± 0.082	2.621 ± 0.082	2.273 ± 0.081
x1 = 0.0784	5.24 ± 0.13	–	–	–	–	–
x1 = 0.1006	–	4.915 ± 0.085	4.126 ± 0.084	3.487 ± 0.083	2.994 ± 0.082	2.593 ± 0.082
x1 = 0.1139	6.253 ± 0.16	–	–	–	–	–
x1 = 0.1272	–	5.245 ± 0.086	4.392 ± 0.084	3.729 ± 0.083	3.181 ± 0.082	2.758 ± 0.082
x1 = 0.1398	6.469 ± 0.16	–	–	–	–	–
x1 = 0.1512	–	5.331 ± 0.086	4.475 ± 0.085	3.802 ± 0.083	3.273 ± 0.082	2.838 ± 0.082
x1 = 0.1543	6.411 ± 0.16	–	–	–	–	–
x1 = 0.2009	–	5.151 ± 0.086	4.371 ± 0.084	3.744 ± 0.083	3.243 ± 0.082	2.839 ± 0.082
x1 = 0.2493	–	4.865 ± 0.085	4.154 ± 0.084	3.6 ± 0.083	3.128 ± 0.082	2.76 ± 0.082
x1 = 0.2986	–	4.539 ± 0.085	3.909 ± 0.083	3.397 ± 0.083	2.982 ± 0.082	–
x1 = 0.3508	–	4.269 ± 0.084	3.695 ± 0.083	3.228 ± 0.082	2.845 ± 0.082	2.528 ± 0.081
x1 = 0.4016	–	4.026 ± 0.084	3.508 ± 0.083	3.089 ± 0.082	2.735 ± 0.082	2.433 ± 0.081
x1 = 0.5033	–	3.66 ± 0.083	3.22 ± 0.083	2.853 ± 0.082	2.543 ± 0.082	2.281 ± 0.081
x1 = 0.5975	–	3.428 ± 0.083	3.025 ± 0.082	2.698 ± 0.082	2.42 ± 0.082	2.183 ± 0.081
x1 = 0.7029	–	3.236 ± 0.083	2.883 ± 0.082	2.577 ± 0.082	2.323 ± 0.081	–
x1 = 0.8018	–	3.113 ± 0.083	2.78 ± 0.082	2.497 ± 0.082	2.257 ± 0.082	2.047 ± 0.081
x1 = 0.8532	–	3.066 ± 0.083	2.744 ± 0.082	2.467 ± 0.082	2.231 ± 0.082	2.029 ± 0.081
x1 = 0.9025	–	3.019 ± 0.083	2.704 ± 0.082	–	2.203 ± 0.082	–
x1 = 0.9447	–	2.982 ± 0.083	2.679 ± 0.082	2.414 ± 0.082	2.182 ± 0.082	1.99 ± 0.081
